These results are taken from patent US7772263B2, “Compounds for the treatment of inflammatory disorders” (Schering Corporation, priority 2006, dated 2010).

The target in the first assay is T1, purified catalytic domain of recombinant human TACE (rhTACEc) (Homo sapiens, UniProt P78536, N452Q/S266A).
T1 construct: rhTACEc, Residue 215 to 477 with two mutation (S266A and N4520) and a 6×His tail; 6xHis (C); made in house; host or cells: baculovirus/Hi5 insect cells
T1 sequence (P78536 215-477 S266A/N452Q limits assumed): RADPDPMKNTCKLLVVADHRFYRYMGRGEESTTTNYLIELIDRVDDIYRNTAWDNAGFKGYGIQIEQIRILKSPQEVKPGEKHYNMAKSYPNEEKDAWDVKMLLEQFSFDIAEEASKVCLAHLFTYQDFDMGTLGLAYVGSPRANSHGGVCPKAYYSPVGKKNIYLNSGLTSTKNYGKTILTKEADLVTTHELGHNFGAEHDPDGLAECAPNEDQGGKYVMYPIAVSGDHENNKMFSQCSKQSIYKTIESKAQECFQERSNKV
Nature of the assay: TACE kinetic assay, cleavage of internally quenched fluorescent peptide substrate SPDL-3. Format: biochemical. To be noted: TACE inhibition, Table 1001; read-out: Ki Rating.
As for `COc1ccc2c(c1)C(=O)N(CC1(C#Cc3cnn(C)c3)NC(=O)NC1=O)C2` (centres unmarked) [Compound 312B], the inhibition constant (Ki) was less than 5 nM. In the case of `COc1ccc2c(c1)C(=O)N(CC1(C#Cc3cccnc3)NC(=O)NC1=O)C2` (centres unmarked) [Compound 312], the Ki is less than 5 nM. Consider `COc1ccc2c(c1)C(=O)N(CC1(C#Cc3ccc(F)cc3F)NC(=O)NC1=O)C2` (centres unmarked) [Compound 315A], for which the Ki is less than 5 nM. Same read-out and setting: the value for `COc1ccc2c(c1)C(=O)N(CC1(C#Cc3ccc(F)cc3)NC(=O)NC1=O)C2` (centres unmarked) [Compound 315] was less than 5 nM. For `COc1ccc2c(c1)C(=O)N(C[C@@]1(C#Cc3cccnc3)NC(=O)NC1=O)C2` [Compound 400B], the Ki is less than 5 nM.

Turning to `C#C[C@]1(CN2Cc3ccc(OC)cc3C2=O)NC(=O)NC1=O` [Compound 401], the inhibition constant (Ki) was less than 5 nM. Still for that read-out and setting: the value for `COc1ccc2c(c1)C(=O)N(C[C@@]1(C#Cc3cncc(-c4cnn(C)c4)c3)NC(=O)NC1=O)C2` [Compound 409C] was less than 5 nM; that for `COc1ccc2c(c1)C(=O)N(C[C@@]1(C#Cc3cncc(N4CCCC4)c3)NC(=O)NC1=O)C2` [Compound 410B] was less than 5 nM. On to `COc1ccc2c(c1)C(=O)N(C[C@@]1(C#Cc3ccc(F)cc3)NC(=O)NC1=O)C2` [Compound 411], for which the Ki was less than 5 nM. The same measure, in the same setting: the value for `CNc1nc2ccc(C#C[C@]3(CN4Cc5ccc(OC)cc5C4=O)NC(=O)NC3=O)cc2s1` [Compound 412D] was less than 5 nM; that for `COc1ccc2c(c1)C(=O)N(C[C@@]1(C#Cc3ccc(CN4CCCC4)nc3)NC(=O)NC1=O)C2` [Compound 413D] was less than 5 nM. On to `COc1ccc2c(c1)C(=O)N(C[C@@]1(C#Cc3ccc(C4(N)CC4)nc3)NC(=O)NC1=O)C2` [Compound 414B], for which the Ki lay within 5 to 25 nM. On the same count and under the same terms, the value for `COc1ccc2c(c1)C(=O)N(C[C@@]1(C#Cc3ccc[nH]c3=O)NC(=O)NC1=O)C2` [Compound 417C] was less than 5 nM; that for `COc1ccc2c(c1)C(=O)N(C[C@@]1(C#Cc3ccc4nn(C)cc4c3)NC(=O)NC1=O)C2` [Compound 421] was less than 5 nM; that for `COc1ccc2c(c1)C(=O)N(C[C@@]1(C#Cc3ccc4nc(C)ccc4c3)NC(=O)NC1=O)C2` [Compound 422] was less than 5 nM. Take `COc1ccc2c(c1)C(=O)N(C[C@@]1(C#Cc3ccc4cnn(C)c4c3)NC(=O)NC1=O)C2` [Compound 423]: the Ki was less than 5 nM. Consider `COc1ccc2c(c1)C(=O)N(C[C@@]1(C#Cc3ccc4cn(C)nc4c3)NC(=O)NC1=O)C2` [Compound 424], for which the inhibition constant (Ki) is less than 5 nM. As for `COc1ccc2c(c1)C(=O)N(C[C@@]1(C#Cc3cncc4ccccc34)NC(=O)NC1=O)C2` [Compound 425], the Ki was less than 5 nM. `COc1ccc2c(c1)C(=O)N(C[C@@]1(C#Cc3ccc(F)c(C(F)(F)F)c3)NC(=O)NC1=O)C2` [Compound 426]: the Ki is less than 5 nM. For the compound `COc1ccc2c(c1)C(=O)N(C[C@@]1(C#Cc3ccc(C)c(F)c3)NC(=O)NC1=O)C2` [Compound 427], the inhibition constant Ki is less than 5 nM. In the case of `COc1ccc2c(c1)C(=O)N(C[C@@]1(C#Cc3ccc(C)c(Cl)c3)NC(=O)NC1=O)C2` [Compound 428], the Ki was less than 5 nM.

Regarding `COc1ccc2c(c1)C(=O)N(C[C@@]1(C#Cc3cccc(OC(F)(F)F)c3)NC(=O)NC1=O)C2` [Compound 429], the inhibitory constant (Ki) is less than 5 nM.

Take `COc1ccc2c(c1)C(=O)N(C[C@@]1(C#Cc3cncc(F)c3)NC(=O)NC1=O)C2` [Compound 430]: the Ki is less than 5 nM. The same measure, in the same setting: next, `COc1ccc2c(c1)C(=O)N(C[C@@]1(C#Cc3ccc(F)c(C)c3)NC(=O)NC1=O)C2` [Compound 432]: less than 5 nM; `COc1ccc2c(c1)C(=O)N(C[C@@]1(C#Cc3ccc(F)cc3Cl)NC(=O)NC1=O)C2` [Compound 433]: less than 5 nM; `COc1ccc2c(c1)C(=O)N(C[C@@]1(C#Cc3cc(F)c(F)c(OC)c3)NC(=O)NC1=O)C2` [Compound 434]: less than 5 nM.

Consider `COc1ccc2c(c1)C(=O)N(C[C@@]1(C#Cc3cc(O)c(F)c(F)c3)NC(=O)NC1=O)C2` [Compound 435], for which the Ki is less than 5 nM. On to `COc1ccc2c(c1)C(=O)N(C[C@@]1(C#Cc3ccc(C(F)(F)F)c(F)c3)NC(=O)NC1=O)C2` [Compound 436], for which the inhibitory constant (Ki) is less than 5 nM. Turning to `COc1ccc2c(c1)C(=O)N(C[C@@]1(C#Cc3cccc(F)c3C)NC(=O)NC1=O)C2` [Compound 437], the inhibition constant (Ki) was less than 5 nM. On to `COc1ccc2c(c1)C(=O)N(C[C@@]1(C#Cc3cccc(Cl)c3C)NC(=O)NC1=O)C2` [Compound 438], for which the inhibitory constant (Ki) is less than 5 nM.

Regarding `COc1ccc2c(c1)C(=O)N(C[C@@]1(C#Cc3cc(C)cc(F)c3)NC(=O)NC1=O)C2` [Compound 439], the Ki is less than 5 nM. Take `COc1ccc2c(c1)C(=O)N(C[C@@]1(C#Cc3cc(F)cc(C(F)(F)F)c3)NC(=O)NC1=O)C2` [Compound 440]: the Ki is less than 5 nM. Consider `COc1ccc2c(c1)C(=O)N(C[C@@]1(C#Cc3cccc4ncccc34)NC(=O)NC1=O)C2` [Compound 441], for which the Ki was less than 5 nM. `COc1ccc2c(c1)C(=O)N(C[C@@]1(C#Cc3cccc4cnccc34)NC(=O)NC1=O)C2` [Compound 442]: the inhibition constant Ki is less than 5 nM. On the same count and under the same terms, next, `COc1ccc2c(c1)C(=O)N(C[C@@]1(C#Cc3cnc4ccccc4c3)NC(=O)NC1=O)C2` [Compound 443]: less than 5 nM; `COc1ccc2c(c1)C(=O)N(C[C@@]1(C#Cc3ccc4c(cnn4C)c3)NC(=O)NC1=O)C2` [Compound 444]: less than 5 nM. Regarding `COc1ccc2c(c1)C(=O)N(C[C@@]1(C#Cc3cccc(F)c3)NC(=O)NC1=O)C2` [Compound 445], the Ki is less than 5 nM. In the case of `COc1ccc2c(c1)C(=O)N(C[C@@]1(C#Cc3cccc(Cl)c3)NC(=O)NC1=O)C2` [Compound 446], the inhibition constant Ki is less than 5 nM. `COc1ccc2c(c1)C(=O)N(C[C@@]1(C#Cc3cccc(C#N)c3)NC(=O)NC1=O)C2` [Compound 447]: the Ki was less than 5 nM. Regarding `COc1ccc2c(c1)C(=O)N(C[C@@]1(C#Cc3cc(F)cc(F)c3)NC(=O)NC1=O)C2` [Compound 448], the Ki is less than 5 nM. In the case of `COc1ccc2c(c1)C(=O)N(C[C@@]1(C#Cc3cc(Cl)cc(Cl)c3)NC(=O)NC1=O)C2` [Compound 449], the Ki was less than 5 nM. On the same count and under the same terms, the value for `COc1ccc2c(c1)C(=O)N(C[C@@]1(C#Cc3cncnc3)NC(=O)NC1=O)C2` [Compound 450] was less than 5 nM. Turning to `COc1ccc2c(c1)C(=O)N(C[C@@]1(C#Cc3cccc(S(C)(=O)=O)c3)NC(=O)NC1=O)C2` [Compound 451], the Ki was less than 5 nM. As for `COc1ccc2c(c1)C(=O)N(C[C@@]1(C#Cc3ccc(Cl)c(F)c3)NC(=O)NC1=O)C2` [Compound 452], the Ki was less than 5 nM. On the same count and under the same terms, the value for `COc1ccc2c(c1)C(=O)N(C[C@@]1(C#Cc3cnc(N)nc3)NC(=O)NC1=O)C2` [Compound 453] was less than 5 nM. Take `COc1ccc2c(c1)C(=O)N(C[C@@]1(C#Cc3nccs3)NC(=O)NC1=O)C2` [Compound 454]: the Ki was less than 5 nM. The same measure, in the same setting: next, `COc1ccc2c(c1)C(=O)N(C[C@@]1(C#Cc3cscn3)NC(=O)NC1=O)C2` [Compound 455]: less than 5 nM. On to `COc1ccc2c(c1)C(=O)N(C[C@@]1(C#Cc3cc(F)cc(Cl)c3)NC(=O)NC1=O)C2` [Compound 456], for which the Ki is less than 5 nM. On to `COc1ccc2c(c1)C(=O)N(C[C@@]1(C#Cc3c(C)nn(C)c3C)NC(=O)NC1=O)C2` [Compound 457], for which the Ki was less than 5 nM. Still for that read-out and setting: next, `COc1ccc2c(c1)C(=O)N(C[C@@]1(C#Cc3cc(F)cc(C#N)c3)NC(=O)NC1=O)C2` [Compound 458]: less than 5 nM; `COc1ccc2c(c1)C(=O)N(C[C@@]1(C#Cc3cccc(C(F)(F)F)c3)NC(=O)NC1=O)C2` [Compound 459]: less than 5 nM; `COc1ccc2c(c1)C(=O)N(C[C@@]1(C#Cc3ccc4nccn4c3)NC(=O)NC1=O)C2` [Compound 460]: less than 5 nM.

For the compound `COc1ccc2c(c1)C(=O)N(C[C@@]1(C#Cc3cc(F)cc(F)c3F)NC(=O)NC1=O)C2` [Compound 461], the Ki is less than 5 nM. Still for that read-out and setting: next, `COc1ccc2c(c1)C(=O)N(C[C@@]1(C#Cc3cc(Cl)cc(C#N)c3)NC(=O)NC1=O)C2` [Compound 462]: less than 5 nM; `COc1ccc2c(c1)C(=O)N(C[C@@]1(C#Cc3cccs3)NC(=O)NC1=O)C2` [Compound 463]: less than 5 nM; `COc1ccc2c(c1)C(=O)N(C[C@@]1(C#Cc3ccsc3)NC(=O)NC1=O)C2` [Compound 464]: less than 5 nM. For the compound `COc1ccc2c(c1)C(=O)N(C[C@@]1(C#Cc3csc(C(C)C)n3)NC(=O)NC1=O)C2` [Compound 465], the Ki was less than 5 nM.

In the case of `COc1ccc2c(c1)C(=O)N(C[C@@]1(C#Cc3c(F)ccc(F)c3F)NC(=O)NC1=O)C2` [Compound 466], the Ki is less than 5 nM. Still for that read-out and setting: next, `COc1ccc2c(c1)C(=O)N(C[C@@]1(C#Cc3csc(C)n3)NC(=O)NC1=O)C2` [Compound 467]: less than 5 nM; `COc1ccc2c(c1)C(=O)N(C[C@@]1(C#Cc3ncccn3)NC(=O)NC1=O)C2` [Compound 468]: less than 5 nM; `COc1ccc2c(c1)C(=O)N(C[C@@]1(C#Cc3cnccn3)NC(=O)NC1=O)C2` [Compound 469]: less than 5 nM. For `COc1ccc2c(c1)C(=O)N(C[C@@]1(C#Cc3ncnc4ccccc34)NC(=O)NC1=O)C2` [Compound 470], the Ki is less than 5 nM.

Regarding `COc1ccc2c(c1)C(=O)N(C[C@@]1(C#Cc3cnc(C)s3)NC(=O)NC1=O)C2` [Compound 471], the inhibition constant (Ki) is less than 5 nM. On the same count and under the same terms, next, `COc1ccc2c(c1)C(=O)N(C[C@@]1(C#Cc3ccc(C4CC4)nc3)NC(=O)NC1=O)C2` [Compound 472]: less than 5 nM; `COc1ccc2c(c1)C(=O)N(C[C@@]1(C#Cc3cncc(C4(N)CC4)c3)NC(=O)NC1=O)C2` [Compound 480]: less than 5 nM; `COc1ccc2c(c1)C(=O)N(C[C@@]1(C#Cc3cncc(C#N)c3)NC(=O)NC1=O)C2` [Compound 481]: less than 5 nM.

The assay is the same for the next values; noted with them: rhTACEc 70 pM, 30 μM SPDL-3, 90 min pre-incubation at 25° C.; read-out: Ki (nM), TACE inhibitory activity.
For the compound `COc1ccc2c(c1)C(=O)N(C[C@@]1(C#Cc3cccnc3)NC(=O)NC1=O)C2` [Compound 400B], the inhibition constant (Ki) is 0.44 nM. `COc1ccc2c(c1)C(=O)N(C[C@@]1(C#Cc3cccc4cnccc34)NC(=O)NC1=O)C2` [Compound 442]: the inhibition constant (Ki) amounted to 0.11 nM.

What is called Ki is a dissociation constant, usually derived from enzyme kinetics or from competition with a known ligand.
